According to patent US20250127806A1, “INJECTABLE LIQUID PHARMACEUTICAL COMPOSITION CONTAINING GEMCITABINE AND A CYTIDINE DEAMINASE INHIBITOR” (ST. JOHN'S UNIVERSITY, priority 2021, published 2025):
≈ marks a conversion by molar mass, not a printed value.

What was measured:
[1] = tested on: MIAPACA-2 xenograft tumors; assay type: in vivo; conditions: s.c. depot every 3rd day, four doses, Gem 10 mg/kg, Zeb 76 mg/kg
Description: All experiments were done in accordance with the guidelines of the Institutional Animal Care and Use Committee (IACUC) at St John's university. MiaPaca-2 pancreatic cancer cells were maintained in DMEM medium supplemented with 100 U/mL penicillin, 1% streptomycin, 10% fetal bovine serum (FBS), in a humidified 5% CO2 atmosphere at 37° C. After acclimation for 7 days, mice were subcutaneously (s.c.) injected in the right flank with Matrigel (BD Biosciences, San Jose, CA, USA) containing 1.5×10^6 MiaPaca-2 cells. The mice were monitored closely for tumor growth by palpation and visual examination. Palpable and measurable tumors were found beginning 5-7 days after cells were injected. Tumor volume was calculated using the equation: tumor volume=(length×width×height)/2. Once the tumors reached a size of 80-120 mm^3 mice were randomly divided into 4 groups to receive s.c. injection (N=6 in each group) of respective in situ depot formulation.
Total four doses of each formulation were given. A syringe with 27G needle was used to administer 10 ul of depot formulation. Post administration, the syringe was left in the same position for 30 sec in order to obviate the sudden leakage of formulation and to facilitate the gelling of entire volumes of formulations at 37° C. Measurements of tumor size and body weight was taken every alternate day using digital calipers. […]

[2] = Saturation solubility of Gemcitabine free base in various solvents; assay type: physicochemical; conditions: for solubility: thermodynamic from solid
Description: In order to select a biocompatible solvent for the development of in situ depot, we carried out saturation solubility of Gemcitabine free base in 12 different organic solvent which are safe to be used for subcutaneous administration in mice. […] However, since NMP is already used in marketed in situ depot formulations and is FDA approved, we used it as a biocompatible solvent to prepare the various polymeric solutions.

SMILES: Nc1ccn([C@@H]2O[C@H](CO)[C@@H](O)C2(F)F)c(=O)n1 [Gemcitabine free base, Gemcitabine]
- Antitumor efficacy (tumor volume) ([1]; FIG. 3(a)): decreased the tumor volume
- Median survival ([1]; FIG. 3(c)): around 18 days
- solubility ([2]; N,N-dimethylacetamide (DMA), organic solvent or mixture, saturation solubility in N,N Dimethylacetamide (DMA)): ~616 mg/mL (≈ 2340 mM)
- solubility ([2]; N-methyl pyrrolidone (NMP), organic solvent or mixture, saturation solubility in N-methyl pyrrolidone (NMP)): ~470 mg/mL (≈ 1790 mM)
- solubility ([2]; diglyme, organic solvent or mixture, saturation solubility in Diglyme): 3.81 ± 0.63 mg/mL (≈ 14.5 mM)
- solubility ([2]; ethyl lactate, organic solvent or mixture, saturation solubility in Ethyl lactate): 18.4 ± 0.34 mg/mL (≈ 69.7 mM)
- solubility ([2]; glycerol formal, organic solvent or mixture, saturation solubility in Glycerol formal): 104 ± 2.03 mg/mL (≈ 397 mM)
- solubility ([2]; isosorbide dimethyl ether, organic solvent or mixture, saturation solubility in Isosorbide dimethyl ether): 8.39 ± 0.4 mg/mL (≈ 31.9 mM)
- solubility ([2]; polyethylene glycol 300, organic solvent or mixture, saturation solubility in Polyethylene glycol 300): 185 ± 13.3 mg/mL (≈ 703 mM)
- solubility ([2]; polyethylene glycol 400, organic solvent or mixture, saturation solubility in Polyethylene glycol 400): 151 ± 2.89 mg/mL (≈ 572 mM)
- solubility ([2]; propylene glycol, organic solvent or mixture, saturation solubility in Propylene glycol): 160 ± 8.29 mg/mL (≈ 609 mM)
- Solubility of Gemcitabine free base ([2]; saturation solubility in N-methyl pyrrolidone (NMP)): 470.70 ± 3.56 mg/mL
- solubility ([2]; solketal, organic solvent or mixture, saturation solubility in Solketal): 17.73 ± 0.008 mg/mL (≈ 67.4 mM)
- solubility ([2]; tetraglycol/glycofurol, organic solvent or mixture, saturation solubility in Tetraglycol/Glycofurol): 129 ± 1.49 mg/mL (≈ 492 mM)
- solubility ([2]; tetrahydrofurfuryl alcohol, organic solvent or mixture, saturation solubility in Tetrahydrofurfuryl alcohol): 221 ± 4.97 mg/mL (≈ 841 mM)
- solubility ([2]; water, saturation solubility in Water): 21.8 ± 1.44 mg/mL (≈ 82.9 mM)
